Measurements taken from patent US20010044445A1, “AZOLE INHIBITORS OF CYTOKINE PRODUCTION” (priority 1999, published 2001).
pIC50: −log10 of the molar value. Read-outs that look alike come from different tables or passages of the source.

Tested on: Human peripheral blood mononuclear cells
Assay: Human Concanavalin-A Proliferation Assay (Con HU Assay)
Assay type: cell-based
Details: concanavalin-A stimulated human PBMC; for inhibition at 1 µM / inhibition at 10 µM / inhibition at 100 µM: 72 h, read-out: % Inhibition of proliferation (at concentrations of 1,10, or 100 μm); for inhibition at 1 µM / % Inhibition of proliferation (at concentrations of 1,10, or 100 μm) / inhibition at 10 µM / inhibition at 100 µM: 3 days; for pIC50: tritiated thymidine
Procedure: Human peripheral blood mononuclear cells were cultured in RPMI 1640 medium supplemented with 10 μg/ml gentamicin, 50 μM 2-mercaptoethanol, 1X MEM non-essential amino acids (Sigma Chemical Co., St. Louis, Mo.), 100 U/ml sodium penicillin G, 100 μg/ml streptomycin sulfate, 2 mM L-glutamine, 1 mM sodium pyruvate (Life Technologies, Grand Island, N.Y.) and 10% fetal bovine serum (Hyclone, Logan, Utah) at 37° C. with 5% CO2.
The procedure in Current Protocols in Immunology, Volume 1, Published by the Greene Publishing Associates and John Wiley & Sons, Inc, Edited by Richard Coico, 1994, hereby incorporated by reference, was followed. Briefly, 50 ml of blood from human volunteers was collected in heparinized syringes and mixed. Blood was diluted 1:1 in Dulbecco's phosphate buffered saline (D-PBS) (Life Technologies, Grand Island, N.Y.) and mixed. PBS-blood mixture was overlaid into 50 ml centrifuge tubes containing 15 ml Histopaque 1077 (Sigma Chemical Co., St. Louis, Mo.) and centrifuged at 500 X G for 30 minutes at room temperature. Cells at the interface from each Histopaque tube were removed and mixed with 5 ml of D-PBS. Each cell suspension was diluted to 50 ml with D-PBS, mixed and centrifuged at 400 X G for 15 minutes at room temperature. After most of the supernatant was removed, cells were resuspended to 40 ml with D-PBS per tube (2 tubes per donor). Cells were centrifuged at 400 X G for 10 minutes at room temperature. Pellets were resuspended in 10 ml of supplemented RPMI 1640 and cell number determined with a Coulter counter. Cells were diluted to a concentration of 0.5×10^6 cells per mL.
The procedure in Current Protocols in Immunology, Volume 1, Published by the Greene Publishing Associates and John Wiley & Sons, Inc, Edited by Richard Coico, 1994, hereby incorporated by reference, was followed. Briefly, test compounds were added to appropriate wells on 96-well tissue culture plates (Corning Glass Works, Corning, N.Y.) in 20 µl of supplemented RPMI 1640. Human peripheral blood mononuclear cells were added to each well in 100 μl volumes (final cell concentration equal to 50,000 cells per well). After 15 minutes, 100 μl of 5 μg/ml concanavalin-A (Sigma Chemical Co., St. Louis, Mo.) in supplemented RPMI 1640 was added to a final concentration of 2.5 μg/ml. Plates were incubated for 3 days at 37° C. with 5% CO2. On day 3, plates were pulsed with 0.5 μCi/well tritiated thymidine (New England Nuclear, Boston, Mass.). After 6 hours, plates were harvested on a Tomatec 96-well havester (Orange, Conn.). Glass filter mats were counted on a Matrix 9600 direct beta counter (Packard, Meriden, Conn.).

[1] = Homo sapiens, PBMC, concentration 1 μm (in parentheses in the cell)
[2] = concentration 1 μm (in parentheses in the cell)
[3] = Homo sapiens, PBMC, concentration 10 μm (in parentheses in the cell)
[4] = concentration 100 μm (in parentheses in the cell)

Compound	pIC50 (Homo sapiens, PBMC)	inhibition at 10 µM [3] [%]	also measured
O=C(Nc1ccc(-n2nc(C(F)(F)F)cc2C(F)(F)F)cc1)C1CC2C=CC1C2 (stereo not shown) [Example 26, N-[4-[3,5-bis(trifluoromethyl)-1H-pyrazol-1-yl]phenyl]bicyclo[2.2.1]hept-5-ene-2-carboxamide]			inhibition at 1 µM [1]: 24%
Cc1nnsc1C(=O)Nc1ccc(-n2nc(-c3cccnc3)cc2[N+](=O)[O-])cc1 [Example 337, N-[4-[3-(3-pyridyl)-5-nitro-1H-pyrazol-1-yl]phenyl]-4-methylthiadiazol-5-yl-carboxamide]			pIC50: 6.66
CC(C)(C)OC(=O)NCCCC(=O)Nc1ccc(-n2nc(C(F)(F)F)cc2C(F)(F)F)cc1 [Example 173, 1,1-Dimethylethyl [[4-[4-[3,5-bis(trifluoromethyl)-1H-pyrazol-1-yl]phenyl]amino]-4-oxobutyl]carbamate]			% Inhibition of proliferation (at concentrations of 1,10, or 100 μm) [2]: 28(1) %
O=C(Nc1ccc(-n2nc(-c3ccoc3)cc2OC(F)F)cc1)c1ccncc1F [Example 359, N-(4-(5-(difluoromethoxy)-3-(3-furyl)-1H-pyrazol-1-yl)phenyl)-3-fluoroisonicotinamide]	6.58		
CC1CCCCC1C(=O)Nc1ccc(-n2nc(C(F)(F)F)cc2C(F)(F)F)cc1 (stereo not shown) [Example 27, N-[4-[3,5-bis(trifluoromethyl)-1H-pyrazol-1-yl]phenyl]-2-methylcyclohexanecarboxamide]	6.52	100	
O=C(Nc1ccc(-n2nc(C(F)(F)F)cc2[N+](=O)[O-])cc1)c1ccncc1F [Example 333, 3-fluoro-N-(4-(5-nitro-3-(trifluoromethyl)-1H-pyrazol-1-yl)phenyl)isonicotinamide]	6.39		
CC1(C)C(C(=O)Nc2ccc(-n3nc(C(F)(F)F)cc3C(F)(F)F)cc2)C1(C)C [Example 2, N-[4-[3,5-bis(trifluoromethyl)-1H-pyrazol-1-yl]phenyl]-2.2.3.3-tetramethylcyclopropanecarboxamide]			% Inhibition of proliferation (at concentrations of 1,10, or 100 μm) [2]: 1(1) %
N#Cc1cccc(NCc2ccc(-n3nc(C(F)(F)F)cc3C(F)(F)F)cc2)c1 [Example 128, 3-[[[4-[3,5-bis(trifluoromethyl)-1H-pyrazol-1-yl]phenyl]methyl]amino]benzonitrile]			inhibition at 1 µM [1]: 25%
N#Cc1cccc(NCc2ccc(-n3nc(C(F)(F)F)cc3C(F)(F)F)cc2)c1 [Example 95, 3-[4-[[[3,5-bis(trifluoromethyl)-1H-pyrazol-1-yl]phenyl]methyl]amino]benzonitrile]			pIC50: 5.14; % Inhibition of proliferation (at concentrations of 1,10, or 100 μm) (concentration 10 μm (in parentheses in the cell)): 47(10) %
O=C(Nc1ccc(-n2nc(C(F)(F)F)cc2C(F)(F)F)cc1)c1cc(Br)c(Br)s1 [Example 263, N-[4-[3,5-bis(trifluoromethyl)-1H-pyrazol-1-yl]phenyl]-2,3-dibromo-5-thiophenecarboxamide]	5.53	100	
O=C(Nc1ccc(-n2nc(C(F)(F)F)cc2C(F)(F)F)cc1)c1ccccn1 [Example 121, N-[4-[3,5-bis(trifluoromethyl)-1H-pyrazol-1-yl]phenyl]-2-pyridinecarboxamide]	4.98		inhibition at 100 µM (Homo sapiens, PBMC, concentration 100 μm (in parentheses in the cell)): 53%
COc1ccc(C(=O)Nc2ccc(-n3nc(C(F)(F)F)cc3C(F)(F)F)cc2)cc1OC [Example 98, N-[4-[3,5-bis(trifluoromethyl)-1H-pyrazol-1-yl]phenyl]-3-4-dimethoxybenzamide]			pIC50: 5.31; % Inhibition of proliferation (at concentrations of 1,10, or 100 μm) [4]: 94(100) %
O=C(Nc1ccc(-n2nc(C(F)(F)F)cc2C(F)(F)F)cc1)c1cc(Cl)cnc1Cl [Example 270, N-[4-[3,5-bis(trifluoromethyl)-1H-pyrazol-1-yl]phenyl]-2,5-dichloro-3-pyridinecarboxamide]	6.64	100	
O=C(Nc1ccc(-n2nc(C(F)(F)F)cc2C(F)(F)F)cc1)c1cncc(Br)c1 [Example 256, N-[4-[3,5-bis(trifluoromethyl)-1H-pyrazol-1-yl]phenyl]-5-bromo-3-pyridinecarboxamide]	6.60	100	
N#Cc1cc(C(F)(F)F)nn1-c1ccc(NC(=O)c2cc(F)cc(F)c2F)cc1 [Example 307, N-(4-(5-cyano-3-(trifluoromethyl)-1H-pyrazol-1-yl)phenyl)-2,3,5-trifluorobenzamide]	7.10		
COc1cc(C(F)(F)F)nn1-c1ccc(NC(=O)c2ccncc2)cc1 [Example 312, N-(4-(5-methoxy-3-(trifluoromethyl)-1H-pyrazol-1-yl)phenyl)isonicotinamide]	6.53		
Cc1cc(Br)ccc1NC(=O)Nc1ccc(-n2nc(C(F)(F)F)cc2C(F)(F)F)cc1 [Example 77, N-[4-[3,5-bis(trifluoromethyl)-1H-pyrazol-1-yl]phenyl]-N′-(4-bromo-2-methylphenyl)urea]	6.18	93	
N#Cc1cc(-c2nccs2)nn1-c1ccc(NC(=O)c2ccncc2F)cc1 [Example 341, N-(4-(5-cyano-3-(1,3-thiazol-2-yl)-1H-pyrazol-1-yl)phenyl)-3-fluoroisonicotinamide]			pIC50: 6.72
Fc1ccc(/N=C/c2ccc(-n3nc(C(F)(F)F)cc3C(F)(F)F)cc2)c(F)c1 [Example 97, (E)-N-[4-[3,5-bis(trifluoromethyl)-1H-pyrazol-1-yl]phenylmethylene]-2,4-difluorobenzenamine]		20	
O=C(Nc1ccc(-n2nc(C(F)(F)F)cc2C(F)(F)F)cc1)C1CCCC1 [Example 123, N-[4-[3,5-bis(trifluoromethyl)-1H-pyrazol-1-yl]phenyl]cyclopentanecarboxmide]			pIC50: 6.59; % Inhibition of proliferation (at concentrations of 1,10, or 100 μm) [4]: 99(100) %
COC(=O)c1cc(NC(=O)c2cc(Br)ccc2Cl)ccc1-n1nc(C(F)(F)F)cc1C(F)(F)F [Example 274, methyl 2-[3,5-bis(trifluoromethyl)-1H-pyrazol-1-yl]-5-[(5-bromo-2-chlorobenzoyl)amino]benzoate]	5.66	100	
O=C1CCC(C(=O)Nc2ccc(-n3nc(C(F)(F)F)cc3C(F)(F)F)cc2)N1 (stereo not shown) [Example 255, N-[4-[3,5-bis(trifluoromethyl)-1H-pyrazol-1-yl]phenyl]-5-oxo-2-pyrrolidinecarboxamide]			inhibition at 1 µM [1]: 12%
N#Cc1cccc(/C=C\c2ccc(-n3nc(C(F)(F)F)cc3C(F)(F)F)cc2)c1 [Example 139, (Z)-3-[2-[4-[3,5-bis(trifluoromethyl)-1H-pyrazol-1-yl]phenyl]ethenyl]benzonitrile]		5	
O=C(Nc1ccc(-n2nc(C(F)(F)F)cc2[N+](=O)[O-])cc1)c1ccccc1F [Example 326, 2-fluoro-N-(4-(5-nitro-3-(trifluoromethyl)-1H-pyrazol-1-yl)phenyl)benzamide]	6.78		
O=C(Nc1ccc(-n2nc(C(F)(F)F)cc2C(F)(F)F)cc1)c1cccc([N+](=O)[O-])c1Br [Example 205, N-[4-[3,5-bis(trifluoromethyl)-1H-pyrazol-1-yl]phenyl]-2-bromo-3-nitrobenzamide]	6.71	100	
O=C(Nc1ccc(-n2nc(C(F)(F)F)cc2C(F)(F)F)cc1)c1cc([N+](=O)[O-])cc([N+](=O)[O-])c1 [Example 134, N-[4-[3,5-bis(trifluoromethyl)-1H-pyrazol-1-yl]phenyl]-3,5-dinitrobenzamide]			inhibition at 100 µM [4]: 100%; pIC50: 5.56
O=C(Nc1ccc(-n2nc(C(F)(F)F)cc2C(F)(F)F)cc1)C1CCCCC1 [Example 124, N-[4-[3,5-bis(trifluoromethyl)-1H-pyrazol-1-yl]phenyl]cyclohexanecarboxmide]			pIC50: 6.55; % Inhibition of proliferation (at concentrations of 1,10, or 100 μm) [4]: 99(100) %
